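A five-concentration, 48-hour dose response in 96-well plates underlies each endpoint, interpolated linearly between surrounding concentrations. At the GI50, growth is halved.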 Active and inactive are the calls of the source. No stated cut-off is given here; in the data, active = GI50 up to about 1.1 µM and inactive = higher.
Key:
Assay in all cases: NCI tumour cell line growth inhibition, 48 h
ACHN = tested on: ACHN
CCRF-CEM = tested on: CCRF-CEM
COLO 205 = tested on: COLO 205
EKVX = tested on: EKVX
HCT-116 = tested on: HCT-116
HL-60 = tested on: HL-60
HOP-92 = tested on: HOP-92
HT-29 = tested on: HT-29
M14 = tested on: M14
MOLT-4 = tested on: MOLT-4
Malme-3M = tested on: Malme-3M
NCI-H226 = tested on: NCI-H226
NCI-H23 = tested on: NCI-H23
OVCAR-8 = tested on: OVCAR-8
RPMI-8226 = tested on: RPMI-8226
SF-539 = tested on: SF-539
SN12C = tested on: SN12C
SNB-19 = tested on: SNB-19
TK-10 = tested on: TK-10
U-251 = tested on: U-251

SMILES	GI50 (ACHN)	GI50 (CCRF-CEM)	GI50 (COLO 205)	GI50 (EKVX)	GI50 (HCT-116)	GI50 (HL-60)	GI50 (HOP-92)	GI50 (HT-29)	GI50 (M14)	GI50 (MOLT-4)	GI50 (Malme-3M)	GI50 (NCI-H226)	GI50 (NCI-H23)	GI50 (OVCAR-8)	GI50 (RPMI-8226)	GI50 (SF-539)	GI50 (SN12C)	GI50 (SNB-19)	GI50 (TK-10)	GI50 (U-251)
C=C1C(=O)OC2C1CCC(C)C1C=CC(=O)C12C (centres undefined)	1.73 µM (inactive)	1.34 µM (inactive)	2.17 µM (inactive)	8.79 µM (inactive)	1.74 µM (inactive)	1.41 µM (inactive)	4.1 µM (inactive)	2.02 µM (inactive)	1.95 µM (inactive)	2.46 µM (inactive)	2.5 µM (inactive)	3.75 µM (inactive)	3.25 µM (inactive)	2.06 µM (inactive)	1.81 µM (inactive)	2.74 µM (inactive)	3.33 µM (inactive)	14.7 µM (inactive)	3.05 µM (inactive)	11.9 µM (inactive)
COc1ccccc1C1c2cc3c(cc2OC2(OC)COC(=O)C12)OCO3 (centres undefined)	22.2 µM (inactive)	12.9 µM (inactive)	6.56 µM (inactive)	24.7 µM (inactive)	6.98 µM (inactive)	3.03 µM (inactive)	40.4 µM (inactive)	5.28 µM (inactive)	8.2 µM (inactive)	5.33 µM (inactive)	15.2 µM (inactive)	34.8 µM (inactive)	29.2 µM (inactive)	24.3 µM (inactive)	8.07 µM (inactive)	12.3 µM (inactive)	18.7 µM (inactive)	21.2 µM (inactive)	39.4 µM (inactive)	14.2 µM (inactive)
CN1CCCC(OC(=O)c2cc3cc(CCl)ccc3oc2=O)C1 (centres undefined)	23.3 µM (inactive)	19.1 µM (inactive)	17.2 µM (inactive)	31.2 µM (inactive)	19.2 µM (inactive)	2.07 µM (inactive)	15.7 µM (inactive)	19.5 µM (inactive)	14.8 µM (inactive)	29.6 µM (inactive)	17.6 µM (inactive)	23.9 µM (inactive)	19.3 µM (inactive)	28.8 µM (inactive)	29.4 µM (inactive)	27 µM (inactive)	20.9 µM (inactive)	27.7 µM (inactive)	18.9 µM (inactive)	14.9 µM (inactive)
CC[C@@]1(O)C(=O)OCc2c1cc1n(c2=O)Cc2c-1nc1ccccc1c2/C=N\NC(=O)C(N)CS (some centres undefined)	0.262 µM (active)	0.0446 µM (active)	41.4 µM (inactive)	47 µM (inactive)	1.7 µM (inactive)	0.346 µM (active)	3.13 µM (inactive)	9.29 µM (inactive)	0.665 µM (active)	0.0794 µM (active)	9.59 µM (inactive)	1.66 µM (inactive)	0.733 µM (active)	1.09 µM (active)	1.32 µM (inactive)	0.249 µM (active)	0.116 µM (active)	0.571 µM (active)	> 84.9 µM (inactive)	0.281 µM (active)
Brc1ccc2c3c1[C@@H]1O[C@@H]1c1cccc(c1-3)[C@@H]1O[C@H]21	22.1 µM (inactive)	5.09 µM (inactive)	21.8 µM (inactive)	19.6 µM (inactive)	13.8 µM (inactive)	19.6 µM (inactive)	20.9 µM (inactive)	17.6 µM (inactive)	14.5 µM (inactive)	> 53 µM (inactive)	18.6 µM (inactive)	39.7 µM (inactive)	16.3 µM (inactive)	13.8 µM (inactive)	13.1 µM (inactive)	2.32 µM (inactive)	17.3 µM (inactive)	22.3 µM (inactive)	41 µM (inactive)	17.6 µM (inactive)
COc1cccc(CCn2c(N)c(-c3ccccc3)c3ccc([N+](=O)[O-])cc3c2=O)c1	5.25 µM (inactive)	11.4 µM (inactive)	2.16 µM (inactive)	12.3 µM (inactive)	3.3 µM (inactive)	5.47 µM (inactive)	10.3 µM (inactive)	10.6 µM (inactive)	11.2 µM (inactive)	6.7 µM (inactive)	14.2 µM (inactive)	3.05 µM (inactive)	3.16 µM (inactive)	1.98 µM (inactive)	0.499 µM (active)	2.51 µM (inactive)	0.664 µM (active)	16 µM (inactive)	2.07 µM (inactive)	9.29 µM (inactive)
c1ccc(C2C3=C(CCCC3)Nc3nc4cc5ccccc5cc4n32)cc1 (centres undefined)	> 100 µM (inactive)	> 100 µM (inactive)	> 100 µM (inactive)	> 100 µM (inactive)	> 100 µM (inactive)	> 100 µM (inactive)	> 100 µM (inactive)	> 100 µM (inactive)	> 100 µM (inactive)	> 100 µM (inactive)	> 100 µM (inactive)	> 100 µM (inactive)	> 100 µM (inactive)	> 100 µM (inactive)	> 100 µM (inactive)	> 100 µM (inactive)	> 100 µM (inactive)	> 100 µM (inactive)		> 100 µM (inactive)
N=c1ccn2c(n1)OC1C(OP(=O)(O)O)C(CO)OC12 (centres undefined)	1.06 µM (active)	0.0467 µM (active)	> 70.6 µM (inactive)	> 100 µM (inactive)	2.06 µM (inactive)	0.597 µM (active)	> 100 µM (inactive)	10.5 µM (inactive)	1.02 µM (active)	0.147 µM (active)	> 100 µM (inactive)	> 100 µM (inactive)	6.93 µM (inactive)	5.45 µM (inactive)	> 100 µM (inactive)	41.1 µM (inactive)	20.2 µM (inactive)	25 µM (inactive)	> 100 µM (inactive)	> 57.8 µM (inactive)
CC(C)[Si](Oc1cc2c3c(ccc2c(O)c1[C@@H](C)CO[Si](C)(C)C(C)(C)C)C(C)(C)CCC3)(C(C)C)C(C)C	> 100 µM (inactive)	43.4 µM (inactive)	> 100 µM (inactive)	> 100 µM (inactive)	> 100 µM (inactive)	17.6 µM (inactive)	> 100 µM (inactive)	> 100 µM (inactive)	> 100 µM (inactive)	29.9 µM (inactive)	22.6 µM (inactive)	> 100 µM (inactive)	> 100 µM (inactive)	> 100 µM (inactive)	49.8 µM (inactive)	> 100 µM (inactive)	> 100 µM (inactive)	> 100 µM (inactive)	> 100 µM (inactive)	> 100 µM (inactive)
COc1ccc(N2C(=O)/C(=C/c3ccc(N(CCC#N)CCC#N)cc3)N=C2c2ccccc2)c(OC)c1	> 100 µM (inactive)	21.9 µM (inactive)	> 100 µM (inactive)	> 100 µM (inactive)	69.2 µM (inactive)	30.3 µM (inactive)	31.1 µM (inactive)	> 100 µM (inactive)	> 100 µM (inactive)	28.2 µM (inactive)	> 100 µM (inactive)	27.4 µM (inactive)	60.3 µM (inactive)	28.5 µM (inactive)	29 µM (inactive)	40.4 µM (inactive)	> 100 µM (inactive)	> 100 µM (inactive)	> 100 µM (inactive)	48.2 µM (inactive)

— ChEMBL document CHEMBL1201862, “PubChem BioAssay data set” (2004)
